Read-outs that look alike come from different tables or passages of the source.
Experiments:
[1] = tested on: P. berghei-ANKA-GFP-LucCON liver stage parasites in HepG2-A16-CD81EGFP cells; assay: P. berghei liver stage Pb-Luc assay, Method 1 (UCSD, 1536-well); format: cell-based, Plasmodium berghei; settings: for activity at 1 µM / activity at 3 µM: 48 h, average of 2 wells on a 1536 well plate; for activity at 1 µM: 1 uM (compounds provided at 10 mM); for activity at 3 µM: 3 uM (compounds provided at 10 mM)
[2] = tested on: Plasmodium falciparum Dd2 asexual blood stage parasites; assay: microbe, parasite or virus in culture; set-up: species or system Plasmodium falciparum Dd2 in human erythrocytes; single determination (one 11-point concentration-response curve); settings: Plasmodium falciparum, DD2, Erythrocyte, 72 h; read-out: AC50
[3] = Plasmodium berghei, column 11, read-out: Pb-Luc (P. berghei liver stage), % of control, lower concentration, first repeat
[4] = Plasmodium berghei, column 12, read-out: Pb-Luc (P. berghei liver stage), % of control, lower concentration, second repeat
[5] = Plasmodium berghei, column 8, read-out: Pb-Luc (P. berghei liver stage), % of control, higher concentration, first repeat
[6] = Plasmodium berghei, column 9, read-out: Pb-Luc (P. berghei liver stage), % of control, higher concentration, second repeat

Compound | AC50 [2] | also measured
COc1cccc(OCCn2cc(C(=O)c3ccco3)c3ccccc32)c1 [MLS000050800-01] |  | activity at 1 µM [1, 3]: 134%; activity at 1 µM [1, 4]: 132%; activity at 3 µM [1, 5]: 134%; activity at 3 µM [1, 6]: 113%
CCOC(=O)c1nnn(-c2nonc2N)c1-c1ccc(C)cc1 [MLS000519435-01] | 5.31 µM | activity at 1 µM [1, 3]: 122%; activity at 1 µM [1, 4]: 101%; activity at 3 µM [1, 5]: 135%; activity at 3 µM [1, 6]: 119%
O=C(Cc1c[nH]c2ncc(-c3ccc(Cl)cc3)cc12)NCc1cccnc1 [NCGC00412438-01] | 1.72 µM | Max Resp (signal direction of the dose response) ([1]; Method 1, Decrease = decreasing P. berghei viability with dose, Increase = increasing signal, Inactive = no dose response): Decrease; AC50 ([1]; Method 1, Hill fit, 50% of maximum activity response, read-out: AC50): 2 µM; Log AC50 (M) ([1]; Method 1, log10 of molar AC50 from Hill fit): -5.700 M; AC50 ([1]; Plasmodium berghei, Method 1, Hill fit, 50% of maximum activity response, read-out: AC50): 1.26 µM; AC50 ([1]; Plasmodium berghei, Method 1, log10 of molar AC50 from Hill fit, read-out: Log AC50 (converted)): 1.26 µM
Cc1oc2ccc(O)c(CN(C)Cc3ccccc3)c2c1C(=O)Nc1ccccc1 [NCGC00115689-01] | 2.37 µM | 
CC1=C[C@@H](CN2CCC[C@H]2CO)[C@H](C(C)C)C[C@H]1Cc1nnc(-c2ccc(N(C)C)cc2)o1 [NCGC00394794-01] | 13.3 µM | 
CC(=O)Nc1ccc(CN2CC(N(C)c3ccccc3C)C2)cc1 [NCGC00476647-01] | 12.2 µM | 
COc1ccccc1NCc1cc(=O)oc2c(C)c(O)ccc12 [MLS001175266-01] | 5.96 µM | 
Cc1sc2[nH]c(-c3ccccn3)nc(=O)c2c1-c1ccccc1 [MLS000760132-01] | 13.3 µM | 
Cc1oc2ccc(O)c(CN3CCCCCC3)c2c1C(=O)Nc1cccc(Cl)c1C [NCGC00115685-01] | 0.841 µM | 
CCCCN1C(=O)C(O)(CC(=O)c2ccc(C(C)(C)C)cc2)c2ccccc21 (centres unmarked) [NCGC00100209-01] | 4.73 µM | 
COc1ccc(CCn2c(=N)c(C(=O)NCCN3CCOCC3)cc3c(=O)n4cccc(C)c4nc32)cc1OC [MLS001146185-01] | 13.3 µM | 
O[C@@H]1C[C@@](CNCc2cccc(Cl)c2)(COc2ccccc2)C[C@@H]1O [NCGC00392187-01] | 3.85 µM | 
CCN(CC)c1cc(C)c2cc(NC(=O)c3ccc(Br)o3)ccc2n1 [MLS000519820-01] | 6.68 µM | 
COc1cc2c(cc1OC)C(COc1ccc3c(C)cc(=O)oc3c1)N(C(=O)c1ccccc1C)CC2 (centres unmarked) [NCGC00104945-01] | 15 µM | 
COc1cccc(CC(=O)N2CCCn3nc(C)c(-c4ccccc4OCc4ccccc4)c32)c1 [NCGC00420361-01] | 9.44 µM | 
Cc1sc2c(c1C)c(=O)n(-c1cccc(C(F)(F)F)c1)c(=O)n2Cc1ccc(F)cc1 [NCGC00106130-01] | 2.11 µM | 
COc1cccc(Nc2ccc3c(n2)C(C)(C(=O)NCC2CC2)CN(C)C3)c1 (centres unmarked) [NCGC00414531-01] | 12.2 µM | 
Cc1nc2cc(F)ccc2n1C1CCN(C(=O)c2c(F)cccc2F)CC1 [MLS000710077-01] | 5.96 µM | 
COc1ccc(-c2ccc3ncc(Nc4ccnc(N5CCOCC5)c4)n3n2)cn1 [NCGC00412623-01] | 4.85 µM | 
CC1CCCN(Cc2c(O)ccc3c(=O)c(Oc4ccccc4Cl)c(C(F)(F)F)oc23)C1 (centres unmarked) [NCGC00101512-01] | 2.11 µM | 
CCOC(=O)C1CCCN(C(=O)c2ccc3c(c2)N(Cc2ccccc2)C(=O)c2ccccc2[S+]3(=O)[O-])C1 (centres unmarked) [NCGC00109839-01] | 6.68 µM | 
CCc1ccc(Oc2c(C(F)(F)F)oc3c(CN4CCN(C)CC4)c(O)ccc3c2=O)cc1 [NCGC00101488-01] | 0.75 µM | 
COC(=O)[C@H](Cc1ccc(OC)cc1)NC(=O)[C@H]1CN(C(=O)c2ccc(N(C)C)cc2)CCN1C(=O)c1cccs1 [NCGC00398661-01] | 0.188 µM | 

Compound | AC50 [2] | also measured
COc1ccc(CC(=O)N2CCC(Oc3ncccc3C(=O)N3CCCCC3)C2)cc1 (centres unmarked) [NCGC00434230-01] | 9.44 µM | 
Cc1noc2c(NC3CCN(C)CC3)cc(-c3cccc(C(F)(F)F)c3)nc12 [NCGC00411487-01] | 13.7 µM | 
CCN1CCN(c2cc(C)c3cc(NC(=O)/C=C/c4cccc(OC)c4OC)ccc3n2)CC1 [NCGC00103854-01] | 5.96 µM | 
COc1ccccc1Cc1nc2ccccc2nc1SCC(=O)NCc1ccccc1Cl [NCGC00133705-01] | 2.11 µM | 
O=[S+]([O-])(c1ccccc1)N1CC(CNc2cccnc2)C2(CN(c3ccccc3)C2)C1 (centres unmarked) [NCGC00415961-01] | 21.7 µM | 
Cc1cccc(-c2cc(C(=O)Nc3ccncc3)c3ccccc3n2)c1 [MLS001147429-01] | 8.41 µM | 
Cc1ccc([S+](=O)([O-])c2nc([S+](=O)([O-])c3ccccc3)sc2NCCCOC(C)C)cc1 [NCGC00116818-01] | 0.596 µM | 
O=C(CCC[C@H]1NC[C@@H]2C[C@H]1CN(Cc1ccccc1)C2)NCCCN1CCCc2ccccc21 [NCGC00428635-01] | 10.6 µM | 
CC(C)[C@@H]1CN([S+](=O)([O-])c2ccc(Cl)cc2Cl)C[C@H]1N(C)C [NCGC00445159-01] | 6.68 µM | 
CNc1cc(C)nc(-n2nc(C)cc2C)n1 [MLS000079642-01] | 8.41 µM | 
COc1ccc2[nH]cc(CCNC(=O)C3(Cc4ccccc4)CCCCC(=O)N3)c2c1 (centres unmarked) [NCGC00456177-01] | 5.96 µM | 
CCOC(=O)N1CCc2c(sc3c2c(=O)n(-c2ccccc2C(F)(F)F)c(=O)n3Cc2ccccc2C)C1 [NCGC00111905-01] | 13.3 µM | 
COc1ccc(-c2nnc(C[C@@H]3C[C@@H](C(C)C)[C@H](CN4CCC(O)CC4)C=C3C)o2)cc1 [NCGC00394772-01] | 9.44 µM | 
CCN1CCN(Cc2cc(Br)cc(Br)c2O)CC1 [MLS000530316-01] | 7.5 µM | 
CCN(CC)CCCNC(=O)c1nn(-c2ccc(OC)c(Cl)c2)c(=O)c2c1c1ccccc1n2C [NCGC00108872-01] | 10.6 µM | 
Cc1cc2cc(-c3c(C)noc3C)nc(N(C)CCN(C)C)c2o1 [NCGC00417474-01] | 12.2 µM | 
O=C(CNC1CC1)Nc1cc(C(F)(F)F)ccc1Cl [MLS001010951-01] | 15 µM | 
Cc1cc(Nc2nc3ccccc3nc2Cl)n(-c2ccccc2C)n1 [MLS000595322-01] | 0.841 µM | 
Cc1nc2c(n1C1CCCCC1)C(=O)c1ccccc1C2=O [MLS000564113-01] |  | activity at 1 µM [1, 3]: 95%; activity at 1 µM [1, 4]: 107%; activity at 3 µM [1, 5]: 85%; activity at 3 µM [1, 6]: 94%
COc1ccc(CN2CC(Oc3ccccc3C(=O)NCc3ccccc3)C2)c(OC)c1 [NCGC00458086-01] | 10.6 µM | 
CCN(CC)c1ccc(NC(=O)COc2ccccc2C#N)cc1S(=O)(=O)Nc1ccccc1OC [MLS000339599-01] | 7.5 µM | 
COc1cc(O)c(C(CCN2CCCCC2)c2cc(OC)c(OC)c(OC)c2)c(OC)c1 (centres unmarked) [MLS000879476-01] | 2.66 µM | 
Cc1ccc(CNCC(O)(c2ccccc2)c2ccc(Cl)cc2)cc1 (centres unmarked) [MLS000721405-01] | 2.99 µM | 

Compound | AC50 [2] | also measured
Cc1cn2nc(C(=O)Nc3ccc(N(C)C)cc3)cc2c(N(C)Cc2ccccc2)n1 [NCGC00454159-01] | 15 µM | 
CC(C(=O)NC1CCCC1)N1CCN(S(=O)(=O)c2ccc(C(C)(C)C)cc2)CC1 (centres unmarked) [MLS002169740-01] | 8.41 µM | 
CCCCc1cc(=O)oc2cc(C)cc(OCC(=O)Nc3cccnc3)c12 [MLS001160046-01] | 0.596 µM | 
COc1ccccc1N1CCN([C@H]2[C@@H]3OC[C@@H](O3)[C@@H](NCc3ccc(-c4ccccc4)cc3)[C@@H]2O)CC1 [NCGC00392675-01] | 15 µM | 
COc1ccccc1C(=O)N1CCC2(CC1)c1nccn1-c1ccccc1CN2CC(C)C [NCGC00442752-01] | 11.9 µM | 
Cc1ccccc1N(C)C1CN(Cc2ccccc2)C1 [NCGC00476681-01] | 19.3 µM | 
COc1cc(=O)n2c(c1C(=O)Nc1ccc(N(C)C)cc1)CCCC2 [NCGC00435410-01] | 10.6 µM | 
Cc1cc(NC(=O)c2cc(-c3ccco3)on2)nn1Cc1ccc(Cl)cc1 [MLS000087231-01] | 8.41 µM | 
COc1ccc(CN2C(=O)COC[C@@H]2[C@H](O)c2ccc(NC(=O)c3ccc(C(C)(C)C)cc3)cc2)cc1 [NCGC00392864-01] | 2.11 µM | 
Cc1ccc2c(n1)N(C)[C@H](CO)CCN(Cc1ccc(C(F)(F)F)cc1)C2 [NCGC00395284-01] | 15.3 µM | 
CN1CCN(C(=O)c2ccc3c(c2)N(Cc2c(F)cccc2Cl)C(=O)c2ccccc2S3)CC1 [NCGC00108178-01] | 0.0596 µM | 
Cc1occc1C(=O)N1CCN(C(c2ccccc2)c2ccccc2)CC1 [MLS000089076-01] | 10.6 µM | 
COc1ccc(S(=O)(=O)N(C)C)cc1NC(C)C(=O)Nc1cccc(C#N)c1 (centres unmarked) [MLS000761043-01] | 6.68 µM | 
CCC1=C(C(=O)OC)C(c2ccccc2OC)N2C(CC(=O)NCC3CCCO3)=CSC2=N1 (centres unmarked) [NCGC00473341-01] | 15 µM | 
COc1ccc(-c2cnc3[nH]cc(CC(=O)NCc4cccnc4)c3c2)cn1 [NCGC00412433-01] | 6.85 µM | 
COc1ccccc1NC(=O)CN1CCN(C2c3ccccc3-c3ccccc32)CC1 [MLS000047428-01] | 15 µM | 
OC(CNC1CCCc2ccccc21)COc1c(Cl)cccc1Cl (centres unmarked) [MLS000334339-01] | 1.68 µM | 
CC(C)CN(Cc1cc(=O)oc2cc3c(cc12)CCCC3)CC(C)C [MLS000763058-01] | 15 µM | 
Cn1nc(C(F)(F)F)c(-c2ccc(F)cc2)c1NC(=O)Nc1ccc(F)cc1 [MLS000830769-01] | 1.88 µM | 
Cc1cc(C)c(CNC(=O)c2cc(-c3cccnc3)cc3c2OCCN3C(C)C)c(=O)[nH]1 [NCGC00416981-01] | 19.3 µM | 
Cc1ccc(CN2C3CCCC2CC(NC(=O)Nc2cccc(F)c2)C3)cc1 (centres unmarked) [MLS000709814-01] | 10.6 µM | 
CC1CCCN(Cc2c(O)ccc3c(=O)c(-c4ccc(Cl)cc4)c(C(F)(F)F)oc23)C1 (centres unmarked) [NCGC00100583-01] | 0.841 µM | 
